Test results from patent publication US10065950B2, “Substituted thiazoles as HIV integrase inhibitors” (Japan Tobacco Inc., priority 2010, dated 2018).

biological target: HIV-1 pNL4-3 integrase (Human immunodeficiency virus type 1 group M subtype B (isolate NY5) (HIV-1), UniProt P12497); assay: Determination of enzyme (HIV integrase) inhibitory activity; assay type: biochemical; details: calculated from inhibition rate (fluorescence)
Summary of the method: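 Full-length pNL4-3 integrase from E. coli (0.75 μM stock) reacted 60 min at 37° C with compound and biotinylated donor DNA bound to streptavidin plates, in MOPS buffer with 5 mM MgCl2 and 10% DMSO. Digoxigenin-labelled target DNA (25 nM stock) then added for 20 min; strand transfer read by peroxidase anti-digoxigenin fluorescence (Ex 325/Em 420 nm).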

Point of comparison: COC[C@H]1CN(C(C)C)C(=O)c2c(O)c(=O)c(-c3nnc(CCCc4ccc(F)cc4)s3)cn21 [Example 242], IC50 0.013 µM. Against it:
- CO[C@H]1CCN(C(=O)[C@@]2(C)CN(C(C)C)C(=O)c3c(O)c(=O)c(-c4ncc(Cc5ccc(F)cc5)s4)cn32)C1 [Example 214] — within 1.5-fold, 0.016 µM
- COC[C@@H]1Cn2cc(-c3ncc(Cc4ccc(F)cc4)s3)c(=O)c(O)c2C(=O)N1CC1CC1 [Example 217] — 2.5-fold lower, 0.0053 µM
- CCOC[C@@H]1Cn2cc(-c3ncc(Cc4ccc(F)cc4)s3)c(=O)c(O)c2C(=O)N1CC1CC1 [Example 218] — 2-fold lower, 0.0065 µM
- CCOc1cc(F)ccc1Cc1nnc(-c2cn3c(c(O)c2=O)C(=O)N(C(C)C)C[C@@H]3COC)s1 [Example 219] — within 1.5-fold, 0.015 µM
- COC[C@H]1CN(C(C)C)C(=O)c2c(O)c(=O)c(-c3nnc(Cc4c(F)cc(F)cc4OC)s3)cn21 [Example 220] — 1.9-fold lower, 0.0068 µM
- CC(C)[C@@H]1Cn2cc(-c3nnc(Cc4ccc(F)cc4)s3)c(=O)c(O)c2C(=O)N1C(C)C [Example 221] — 1.5-fold lower, 0.0084 µM
- CCOC[C@@H]1Cn2cc(-c3ncc(Cc4ccc(F)cc4)s3)c(=O)c(O)c2C(=O)N1CC [Example 222] — 2-fold lower, 0.0065 µM
- CC(C)N1C[C@@](C)(C(=O)N2CCC2)n2cc(-c3ncc(Cc4ccc(F)cc4)s3)c(=O)c(O)c2C1=O [Example 223] — within 1.5-fold, 0.012 µM
- CC(C)[C@H]1Cn2cc(-c3nnc(Cc4ccc(F)cc4)s3)c(=O)c(O)c2C(=O)N1C(C)C [Example 224] — 1.8-fold lower, 0.0073 µM
- CC(C)N1C[C@@](C)(C(=O)N2CCCC2)n2cc(-c3ncc(Cc4ccc(F)cc4)s3)c(=O)c(O)c2C1=O [Example 225] — within 1.5-fold, 0.018 µM
- CCNC(=O)[C@]1(C)CN(C(C)C)C(=O)c2c(O)c(=O)c(-c3ncc(Cc4ccc(F)cc4)s3)cn21 [Example 226] — the same, 0.013 µM
- CNC(=O)[C@]1(C)CN(C(C)C)C(=O)c2c(O)c(=O)c(-c3ncc(Cc4ccc(F)cc4)s3)cn21 [Example 227] — the same, 0.013 µM
- COC[C@H]1CN(C(C)C)C(=O)c2c(O)c(=O)c(-c3nnc(Cc4cccc(Cl)c4)s3)cn21 [Example 228] — within 1.5-fold, 0.011 µM
- COC[C@H]1CN(C(C)C)C(=O)c2c(O)c(=O)c(-c3nnc(Cc4ccc(Cl)cc4F)s3)cn21 [Example 229] — within 1.5-fold, 0.012 µM
- COC[C@H]1CN(C(C)C)C(=O)c2c(O)c(=O)c(-c3nnc(Cc4ccc(F)cc4Br)s3)cn21 [Example 230] — 5.3-fold higher, 0.069 µM
- COC[C@H]1CN(C(C)C)C(=O)c2c(O)c(=O)c(-c3nnc(Cc4ccc(F)cc4C)s3)cn21 [Example 231] — within 1.5-fold, 0.011 µM
- COC[C@@H]1[C@H](C)n2cc(-c3nnc(Cc4ccc(F)cc4)s3)c(=O)c(O)c2C(=O)N1C(C)C [Example 232] — within 1.5-fold, 0.015 µM
- CC(C)N1C(=O)c2c(O)c(=O)c(-c3nnc(Cc4ccc(F)cc4)s3)cn2C[C@@H]1C [Example 233] — 2-fold lower, 0.0064 µM
- CC(C)N1C[C@@](C)(C(=O)N(C)C)n2cc(-c3ncc(Cc4ccc(F)cc4)s3)c(=O)c(O)c2C1=O [Example 234] — within 1.5-fold, 0.018 µM
- COCCN(C)C(=O)[C@]1(C)CN(C(C)C)C(=O)c2c(O)c(=O)c(-c3ncc(Cc4ccc(F)cc4)s3)cn21 [Example 235] — within 1.5-fold, 0.016 µM
- CC(C)N1C[C@](C)(C(=O)N2CCC2)n2cc(-c3ncc(Cc4ccc(F)cc4)s3)c(=O)c(O)c2C1=O [Example 236] — the same, 0.013 µM
- COC1CN(C(=O)[C@@]2(C)CN(C(C)C)C(=O)c3c(O)c(=O)c(-c4ncc(Cc5ccc(F)cc5)s4)cn32)C1 [Example 237] — the same, 0.013 µM
- COCC1CN(C(=O)[C@@]2(C)CN(C(C)C)C(=O)c3c(O)c(=O)c(-c4ncc(Cc5ccc(F)cc5)s4)cn32)C1 [Example 238] — within 1.5-fold, 0.018 µM
- CCNC(=O)[C@@]1(C)CN(C(C)C)C(=O)c2c(O)c(=O)c(-c3ncc(Cc4ccc(F)cc4)s3)cn21 [Example 239] — within 1.5-fold, 0.016 µM
- COC[C@H]1CN(C(C)C)C(=O)c2c(O)c(=O)c(-c3nnc(Cc4ccc(OC)cc4)s3)cn21 [Example 240] — 4-fold higher, 0.052 µM
- COC[C@H]1CN(C(C)C)C(=O)c2c(O)c(=O)c(-c3nnc(CCc4ccc(F)cc4)s3)cn21 [Example 241] — within 1.5-fold, 0.014 µM
